In PMC5327470, “Discovery and Optimization of Novel 5-Indolyl-7-arylimidazo[1,2-a]pyridine-8-carbonitrile Derivatives as Potent Antitubulin Agents Targeting Colchicine-binding Site” (Scientific Reports, 2017):

How the values were obtained:
[1] = system: HT-29 (human colon cancer); test: MTT antiproliferative assay, HT-29; assay type: cell-based; conditions: for IC50: Homo sapiens, HT-29, MTT, 72 h, mean ± SD, read-out: IC50 (μM) ±SD HT29
Method: (§1) To evaluate the antiproliferative activity, all synthesized derivatives (5a–5v and 7a–7h) were investigated for their activity in vitro against a panel of cancer cell lines including HT-29 (human colon cancer), H460 (human lung cancer), A549 (human lung carcinoma), MKN-45 (human gastric cancer) and SMMC-7721 (human liver cancer) by MTT assay. CA-4 and Crolibulin were served as positive control, and the results expressed as half-maximal inhibitory concentration (IC50). IC50 values are the concentrations that cause 50% inhibition of cancer cell growth (μM). Data represent the mean values ± standard deviation (SD) of independent experiments performed in triplicate.
(§2) Cell lines and culture conditions.The human colon carcinoma cell line HT-29, the human pulmonary carcinoma cell line A549, the human gastric carcinoma cell line MKN-45, the human breast cancer cell line MDA-MB-231 and human heptocarcinoma cellline SMMC-7721were cultured in RPMI-1640 mediumcontaining 10% FBS, 100 U/mL streptomycin and 100 U/mL penicillinat 37 °C in humidified atmosphere with 5% CO2. All of the cells were purchased from the American Type Culture Collection (ATCC, Manassas, VA).
(§3) The antiproliferative activities in vitro of Crolibulin and all the target compounds were determined by an MTT assay. Briefly, cells were seeded into 96-well plates at a density of 1–3 × 10^4/well (depends on the cell growth rate). 24 h later, triplicate wells were treated with media and the agents. After 72 h ofincubation at 37 °C in 5% CO2, the drug containing medium wasremoved and replaced by 100 mL of fresh medium with 5 mg/mLMTT solution. After 4 h of incubation, the medium with MTT was removed, and […] of DMSO was added to each well. The plates were gently agitated until the purple formazan crystals were dissolved, and the OD490 was determinedusing a microplate reader (MK3, Thermo, Germany). The data were calculated and plotted as the percent viability compared to the control. The 50% inhibitory concentration (IC50) was defined as theconcentration that reduced the absorbance of the untreated wells by 50% of the vehicle in the MTT assay.

[2] = system: H460 (human lung cancer); test: MTT antiproliferative assay, H460; assay type: cell-based; conditions: for IC50: MTT, 72 h, mean ± SD
Method: as §1, §3

[3] = system: A549 (human lung carcinoma); test: MTT antiproliferative assay, A549; assay type: cell-based; conditions: 72 h, mean ± SD
Method: as §1, §2, §3

[4] = system: MKN-45 (human gastric cancer); test: MTT antiproliferative assay, MKN-45; assay type: cell-based; conditions: 72 h, mean ± SD, read-out: IC50 (μM) ±SD MKN45
Method: as §1, §2, §3

[5] = system: SMMC-7721 (human liver cancer); test: MTT antiproliferative assay, SMMC-7721; assay type: cell-based; conditions: 72 h, mean ± SD
Method: Data represent the mean values ± standard deviation (SD) of independent experiments performed in triplicate.
All of the cells were purchased from the American Type Culture Collection (ATCC, Manassas, VA).
as §3, with “After 72 h ofincubation at 37 °C in 5% CO2, the drug containing medium wasremoved and replaced by 100 mL of fresh medium with 5 mg/mLMTT solution.” left out, “control.” for “control. The 50% inhibitory concentration (IC50) was defined as theconcentration that reduced the absorbance of the untreated wells by 50% of the vehicle in the MTT assay.”

N#Cc1c(-c2ccc(F)cc2Cl)cc(-c2c[nH]c3ccccc23)n2cc(CN3CCCC3)nc12 [7g, 7-(2-chloro-4-fluorophenyl)-5-(1H-indol-3-yl)-2-(pyrrolidin-1-ylmethyl)imidazo[1,2-a]pyridine-8-carbonitrile]
IC50 [1]: 0.19 ± 0.02 µM
IC50 ([2]; Homo sapiens, NCI-H460, 72 h): 1.32 ± 0.12 µM
IC50 [3]: 8.79 ± 0.62 µM
IC50 [4]: 19.2 ± 1.35 µM
IC50 [5]: 42.6 ± 4.12 µM
melting point: 195 to 199.7 °C

N#Cc1c(-c2ccccc2)cc(-c2c[nH]c3ccc(Br)cc23)n2ccnc12 [5r, 5-(5-bromo-1H-indol-3-yl)-7-phenylimidazo[1,2-a]pyridine-8-carbonitrile]
IC50 [1]: 1.74 ± 0.14 µM
IC50 ([2]; Homo sapiens, NCI-H460, 72 h): 11.4 ± 1.68 µM
IC50 [3]: 67.3 ± 7.43 µM
IC50 [4]: 7.38 ± 0.63 µM
IC50 [5]: > 100 µM
melting point: 337.9 to 342.4 °C

N#Cc1c(-c2ccccc2)cc(-c2c[nH]c3ccccc23)n2ccnc12 [5a, 5-(1H-indol-3-yl)-7-phenylimidazo[1,2-a]pyridine-8-carbonitrile]
IC50 [1]: 0.3 ± 0.04 µM
IC50 ([2]; Homo sapiens, NCI-H460, 72 h): 2.79 ± 0.52 µM
IC50 [3]: 86.4 ± 7.33 µM
IC50 [4]: 79.7 ± 8.1 µM
IC50 [5]: 89.4 ± 2.6 µM
melting point: 338.3 to 339.7 °C

COc1cc(-c2cc(-c3c[nH]c4ccccc34)n3ccnc3c2C#N)c(Br)cc1O [5n, 7-(2-bromo-4-hydroxy-5-methoxyphenyl)-5-(1H-indol-3-yl)imidazo[1,2-a]pyridine-8-carbonitrile]
IC50 [1]: 1.16 ± 0.13 µM
IC50 ([2]; Homo sapiens, NCI-H460, 72 h): 9.61 ± 0.74 µM
IC50 [3]: 80.2 ± 9.68 µM
IC50 [4]: 14.5 ± 2.43 µM
IC50 [5]: 97.2 ± 6.54 µM
melting point: 327.7 to 330 °C

N#Cc1c(-c2ccc(F)c(F)c2)cc(-c2c[nH]c3ccccc23)n2ccnc12 [5j, 7-(3,4-difluorophenyl)-5-(1H-indol-3-yl)imidazo[1,2-a]pyridine-8-carbonitrile]
IC50 [1]: 0.03 ± 0.009 µM
IC50 ([2]; Homo sapiens, NCI-H460, 72 h): 0.076 ± 0.01 µM
IC50 [4]: 1.43 ± 0.12 µM
IC50 [5]: 18.5 ± 2.76 µM
melting point: 341.6 to 343.8 °C

COc1ccc(-c2cc(-c3c[nH]c4ccccc34)n3ccnc3c2C#N)cc1 [5d, 5-(1H-indol-3-yl)-7-(4-methoxyphenyl)imidazo[1,2-a]pyridine-8-carbonitrile]
IC50 [1]: 0.43 ± 0.03 µM
IC50 ([2]; Homo sapiens, NCI-H460, 72 h): 9.61 ± 0.76 µM
IC50 [3]: 15.5 ± 2.13 µM
IC50 [4]: 1.64 ± 0.07 µM
IC50 [5]: 71.5 ± 9.43 µM
melting point: 294.7 to 295.5 °C

N#Cc1c(-c2ccc(Br)cc2)cc(-c2c[nH]c3ccccc23)n2ccnc12 [5h, 7-(4-bromophenyl)-5-(1H-indol-3-yl)imidazo[1,2-a]pyridine-8-carbonitrile]
IC50 [1]: 0.12 ± 0.02 µM
fold more potent than 5a on HT-29 cell ([1]; ratio of IC50 values): about 2.5 fold
IC50 ([2]; Homo sapiens, NCI-H460, 72 h): 1.16 µM
IC50 [2]: 0.95 ± 0.03 µM
IC50 [3]: 8.54 ± 0.93 µM
IC50 [4]: 2.76 ± 0.47 µM
IC50 [5]: 53.5 ± 7.76 µM
melting point: 307.8 to 309.5 °C

COc1cc([C@H]2C(C#N)=C(N)Oc3c2ccc(N)c3N)cc(Br)c1OC [Crolibulin, reference compound]
IC50 [1]: 0.52 ± 0.02 µM
IC50 ([2]; Homo sapiens, NCI-H460): 0.03 ± 0.007 µM
IC50 [4]: 0.17 ± 0.03 µM

N#Cc1c(-c2ccccc2Cl)cc(-c2c[nH]c3ccc(Br)cc23)n2ccnc12 [5t, 5-(5-bromo-1H-indol-3-yl)-7-(2-chlorophenyl)imidazo[1,2-a]pyridine-8-carbonitrile]
IC50 [1]: 0.58 ± 0.06 µM
IC50 ([2]; Homo sapiens, NCI-H460, 72 h): 80.7 ± 6.98 µM
IC50 [3]: > 100 µM
IC50 [4]: 56.8 ± 4.29 µM
IC50 [5]: > 100 µM
melting point: 302.2 to 306.8 °C

CC1CCN(Cc2cn3c(-c4c[nH]c5ccccc45)cc(-c4ccc(F)cc4Cl)c(C#N)c3n2)CC1 [7f, 7-(2-chloro-4-fluorophenyl)-5-(1H-indol-3-yl)-2-((4-methylpiperidin-1-yl)methyl)imidazo[1,2-a]pyridine-8-carbonitrile]
IC50 [1]: 0.56 ± 0.07 µM
IC50 ([2]; Homo sapiens, NCI-H460, 72 h): 0.85 ± 0.06 µM
IC50 [3]: 20.3 ± 2.32 µM
IC50 [4]: 1.63 ± 0.28 µM
IC50 [5]: 11.3 ± 2.15 µM
melting point: 185.7 to 187.9 °C

CCN(CC)Cc1cn2c(-c3c[nH]c4ccccc34)cc(-c3ccc(F)cc3Cl)c(C#N)c2n1 [7e, 7-(2-chloro-4-fluorophenyl)-2-((diethylamino)methyl)-5-(1H-indol-3-yl)imidazo[1,2-a]pyridine-8-carbonitrile]
IC50 [1]: 0.21 ± 0.03 µM
IC50 ([2]; Homo sapiens, NCI-H460, 72 h): 0.67 ± 0.05 µM
IC50 [3]: 4.87 ± 0.38 µM
IC50 [4]: 13.8 ± 1.79 µM
IC50 [5]: 24.6 ± 2.73 µM
melting point: 181.2 to 184.5 °C

CNCc1cn2c(-c3c[nH]c4ccccc34)cc(-c3ccc(F)cc3Cl)c(C#N)c2n1 [7a, 7-(2-chloro-4-fluorophenyl)-5-(1H-indol-3-yl)-2-((methylamino)methyl)imidazo[1,2-a]pyridine-8-carbonitrile]
IC50 [1]: 0.04 ± 0.001 µM
IC50 ([2]; Homo sapiens, NCI-H460, 72 h): 1.29 ± 0.21 µM
IC50 [3]: 5.34 ± 0.67 µM
IC50 [4]: 12.2 ± 1.89 µM
IC50 [5]: 27 ± 3.06 µM
melting point: 219.5 to 223.5 °C

N#Cc1c(-c2ccc(F)cc2Cl)cc(-c2c[nH]c3ccccc23)n2cc(CN3CCOCC3)nc12 [7h, 7-(2-chloro-4-fluorophenyl)-5-(1H-indol-3-yl)-2-(morpholinomethyl)imidazo[1,2-a]pyridine-8-carbonitrile]
IC50 [1]: 0.92 ± 0.14 µM
IC50 ([2]; Homo sapiens, NCI-H460, 72 h): 1.27 ± 0.14 µM
IC50 [3]: 16.9 ± 1.98 µM
IC50 [4]: 36.3 ± 5.15 µM
IC50 [5]: 28.7 ± 1.79 µM
melting point: 201.3 to 203.5 °C

N#Cc1c(-c2cc(Br)c(O)c(Br)c2)cc(-c2c[nH]c3ccccc23)n2ccnc12 [5m, 7-(3,5-dibromo-4-hydroxyphenyl)-5-(1H-indol-3-yl)imidazo[1,2-a]pyridine-8-carbonitrile]
IC50 [1]: 2.13 ± 0.12 µM
IC50 ([2]; Homo sapiens, NCI-H460, 72 h): 1.15 ± 0.13 µM
IC50 [3]: 2.45 ± 0.37 µM
IC50 [4]: 18.3 ± 2.13 µM
IC50 [5]: 20.5 ± 3.53 µM
melting point: 290.5 to 294.2 °C

N#Cc1c(-c2ccc(F)cc2F)cc(-c2c[nH]c3ccccc23)n2ccnc12 [5i, 7-(2,4-difluorophenyl)-5-(1H-indol-3-yl)imidazo[1,2-a]pyridine-8-carbonitrile]
IC50 [1]: 0.08 ± 0.001 µM
IC50 ([2]; Homo sapiens, NCI-H460, 72 h): 0.04 ± 0.001 µM
fold more active in H460 than 5h ([2]; ratio of IC50 values): about 29 fold
IC50 [3]: 0.12 ± 0.03 µM
IC50 [4]: 0.03 ± 0.006 µM
IC50 [5]: 13.6 ± 2.38 µM
melting point: 340.3 to 346.2 °C

N#Cc1c(-c2cccc(Br)c2)cc(-c2c[nH]c3ccccc23)n2ccnc12 [5g, 7-(3-bromophenyl)-5-(1H-indol-3-yl)imidazo[1,2-a]pyridine-8-carbonitrile]
IC50 [1]: > 100 µM
IC50 ([2]; Homo sapiens, NCI-H460, 72 h): 6.89 ± 0.67 µM
IC50 [3]: > 100 µM
IC50 [4]: 64 ± 7.14 µM
IC50 [5]: 79.2 ± 6.87 µM
melting point: 321.9 to 324.4 °C

N#Cc1c(-c2ccc(F)cc2Cl)cc(-c2c[nH]c3ccc(Br)cc23)n2ccnc12 [5v, 5-(5-bromo-1H-indol-3-yl)-7-(2-chloro-4-fluorophenyl)imidazo[1,2-a]pyridine-8-carbonitrile]
IC50 [1]: 0.26 ± 0.03 µM
IC50 ([2]; Homo sapiens, NCI-H460, 72 h): 2.13 ± 0.24 µM
IC50 [3]: 3.57 ± 0.23 µM
IC50 [4]: 7.35 ± 0.54 µM
IC50 [5]: 56.3 ± 4.87 µM
melting point: 320.8 to 323.2 °C

COc1cc(OC)c(OC)c(-c2cc(-c3c[nH]c4ccccc34)n3ccnc3c2C#N)c1 [5q, 5-(1H-indol-3-yl)-7-(2,3,5-trimethoxyphenyl)imidazo[1,2-a]pyridine-8-carbonitrile]
IC50 [1]: 0.46 ± 0.03 µM
IC50 [3]: 1.75 ± 0.13 µM
IC50 [4]: 1.74 ± 0.15 µM
IC50 [5]: 27.4 ± 2.32 µM
melting point: 302.7 to 304.8 °C

N#Cc1c(-c2ccccc2F)cc(-c2c[nH]c3ccc(Br)cc23)n2ccnc12 [5s, 5-(5-bromo-1H-indol-3-yl)-7-(2-fluorophenyl)imidazo[1,2-a]pyridine-8-carbonitrile]
IC50 [1]: 2.86 ± 0.38 µM
IC50 ([2]; Homo sapiens, NCI-H460, 72 h): 17.2 ± 1.34 µM
IC50 [3]: 67.3 ± 4.59 µM
IC50 [4]: 31.2 ± 5.79 µM
IC50 [5]: > 100 µM
melting point: 301.7 to 304.6 °C

N#Cc1c(-c2ccc(O)c(O)c2O)cc(-c2c[nH]c3ccccc23)n2ccnc12 [5p, 5-(1H-indol-3-yl)-7-(2,3,4-trihydroxyphenyl)imidazo[1,2-a]pyridine-8-carbonitrile]
IC50 [1]: 1.48 ± 0.27 µM
IC50 ([2]; Homo sapiens, NCI-H460, 72 h): 0.25 ± 0.031 µM
IC50 [3]: 1.18 ± 0.21 µM
IC50 [4]: 9.67 ± 0.73 µM
IC50 [5]: 10.4 ± 1.64 µM
melting point: 297.8 to 301.4 °C
